Laboratory results reported in publication PMC10488193, “Evaluation of the Chemical Stability, Membrane Permeability and Antiproliferative Activity of Cyclic Diarylheptanoids from European Hornbeam (Carpinus betulus L.)” (International Journal of Molecular Sciences, 2023).
Values belong to the molecule of their own block, whether it stands above or below them.

How the values were obtained:
[1] = tested on: A549 human lung adenocarcinoma cells; set-up: method as in PMID 28520428, PMID 28941682; conditions: cited from earlier work
[2] = tested on: HeLa human cervical adenocarcinoma cells; set-up: method as in PMID 28520428, PMID 28941682; conditions: cited from earlier work
[3] = tested on: A375 human melanoma cell line; set-up: method as in PMID 28208804; conditions: cited from earlier work
[4] = tested on: SK-Mel-28 human melanoma cell line; set-up: method as in PMID 28208804; conditions: cited from earlier work
[5] = tested on: lipid peroxidation in human plasma; set-up: method as in PMID 28520428; conditions: cited from earlier work
PAMPA-BBB = type: in vitro ADME; conditions: pH 7.4, read-out: logPe PAMPA-BBB (n = 9) (converted)
Description: A parallel artificial membrane permeability assay (PAMPA) was used to determine the effective permeability (Pe) for the Carpinus diarylheptanoids. Stock solutions of the isolated compounds (10 mM in DMSO) were diluted with the defined buffer (pH 7.4 for the PAMPA-BBB and pH 6.8 for the PAMPA-GI assays) to obtain the donor solutions (composition: 297.0 μL buffer + 3.0 μL stock solution). Donor solutions were filtered through Phenex-RC 15 mm, 0.2 μm syringe filters (Gen-Lab Ltd., Budapest, Hungary).
For the PAMPA-BBB test, 5 μL of porcine polar brain lipid extract (PBLE) solution (16.0 mg PBLE + 8.0 mg cholesterol dissolved in 600.0 μL n-dodecane) was applied for each well of the 96-well polycarbonate-based filter donor plates (top plate) (Multiscreen™-IP, MAIPN4510, pore size 0.45 μm; Merck). […]
After the incubation, the plates were separated and the compound concentrations in the donor (CD(t)) and acceptor (CA(t)) solutions were determined using the aforementioned UHPLC-DAD method (see Section 3.4). […]
All experiments were performed in three triplicates on three consecutive days (n = 9); caffeine standard was used as positive, while rutin was used as negative control. Clog P values were calculated using ACD/ChemSketch (Freeware) 2 January 2020 (Advanced Chemistry Development, Inc., Toronto, ON, Canada).

Compound: O=C1CCc2ccc(O)c(c2)-c2cc(ccc2O)C[C@H](O)[C@H](O)[C@H]1O [Compound 2, carpinontriol B]
IC50 [1]: > 100 µM
IC50 [2]: > 100 µM
cytotoxic concentration (not cytotoxic up to) [3]: > 1000 µM
cytotoxic concentration (not cytotoxic up to) [4]: > 1000 µM
lipid peroxidation induced by H2O2 (in words) [5]: inhibited lipid peroxidation

Papp at 4 h, 100 µM (PAMPA-BBB): 1.2 ×10⁻⁶ cm/s
Compound: O=C1CCc2ccc(O)c(c2)-c2cc(ccc2O)C[C@@H](O)[C@H](O)C1 [Compound 3, giffonin X]
